Measurements reported in patent US20130096170A1 (priority 2011, published 2013).

How the values were obtained:
[1] = human, in vivo
clinical [2] = conditions: human, plasma, intravenous
clinical [3] = conditions: human

SMILES: Cc1cccc([C@H](C)c2cnc[nH]2)c1C [dexmedetomidine]
- AUC (0-Infinity)Dose [1]: 2102.55 (n = 2) (pg/mL)hr/μg
- AUC (0-Last) [1]: 813.26 (pg/mL)hr
- Vdw [1]: 3.47 (n = 2) L/kg
- dose-adjusted AUC (0-Infinity), additional cohort versus age group II [1]: 4.6 times higher
- t1/2 [1]: 8 h
- clearance (clinical [2]; CL, Geo. Mean of individual Bayesian estimates, 1 month-<6 months (n = 14)): 116 mL/min
- clearance (clinical [2]; CL, Geo. Mean of individual Bayesian estimates, 2 y-<6 y (n = 26)): 265 mL/min
- clearance (clinical [2]; CL, Geo. Mean of individual Bayesian estimates, 6 months-<12 months (n = 16)): 136 mL/min
- clearance (clinical [2]; CL, Geo. Mean of individual Bayesian estimates, 6 y-<17 y (n = 29)): 408 mL/min
- clearance (clinical [2]; CL, Geo. Mean of individual Bayesian estimates, 12 months-<24 months (n = 13)): 179 mL/min
- clearance (clinical [2]; CL, Geo. Mean of individual Bayesian estimates, 28 weeks GA-<1 month (n = 28)): 38 mL/min
- clearance (clinical [2]; CL, elimination clearance (population mean), final population PK model, Examples 5, 3, 1 and 7): 178 mL/min
- Vd (clinical [2]; Volume of Distribution, Geo. Mean of individual Bayesian estimates, 1 month-<6 months (n = 14)): 17.3 L
- Vd (clinical [2]; Volume of Distribution, Geo. Mean of individual Bayesian estimates, 2 y-<6 y (n = 26)): 33.7 L
- Vd (clinical [2]; Volume of Distribution, Geo. Mean of individual Bayesian estimates, 6 months-<12 months (n = 16)): 21.2 L
- Vd (clinical [2]; Volume of Distribution, Geo. Mean of individual Bayesian estimates, 6 y-<17 y (n = 29)): 51.6 L
- Vd (clinical [2]; Volume of Distribution, Geo. Mean of individual Bayesian estimates, 12 months-<24 months (n = 13)): 23.9 L
- Vd (clinical [2]; Volume of Distribution, Geo. Mean of individual Bayesian estimates, 28 weeks GA-<1 month (n = 28)): 14.1 L
- clearance (clinical [2]; Weight-Adjusted CL, Geometric Mean (individual Bayesian estimates), Including Additional 11 Subjects, 1 month-<6 months (n = 14)): 20.2 mL/min/kg
- clearance (clinical [2]; Weight-Adjusted CL, Geometric Mean (individual Bayesian estimates), Including Additional 11 Subjects, 2 y-<6 y (n = 26)): 18.5 mL/min/kg
- clearance (clinical [2]; Weight-Adjusted CL, Geometric Mean (individual Bayesian estimates), Including Additional 11 Subjects, 6 months-<12 months (n = 16)): 18.5 mL/min/kg
- clearance (clinical [2]; Weight-Adjusted CL, Geometric Mean (individual Bayesian estimates), Including Additional 11 Subjects, 6 y-<17 y (n = 29)): 13.3 mL/min/kg
- clearance (clinical [2]; Weight-Adjusted CL, Geometric Mean (individual Bayesian estimates), Including Additional 11 Subjects, 12 months-<24 months (n = 13)): 17.7 mL/min/kg
- clearance (clinical [2]; Weight-Adjusted CL, Geometric Mean (individual Bayesian estimates), Including Additional 11 Subjects, 28 weeks GA-<1 month (n = 28)): 15.5 mL/min/kg
- Vd (clinical [2]; Weight-Adjusted Vd, Geometric Mean (individual Bayesian estimates), Including Additional 11 Subjects, 1 month-<6 months (n = 14)): 3.02 L/kg
- Vd (clinical [2]; Weight-Adjusted Vd, Geometric Mean (individual Bayesian estimates), Including Additional 11 Subjects, 2 y-<6 y (n = 26)): 2.35 L/kg
- Vd (clinical [2]; Weight-Adjusted Vd, Geometric Mean (individual Bayesian estimates), Including Additional 11 Subjects, 6 months-<12 months (n = 16)): 2.89 L/kg
- Vd (clinical [2]; Weight-Adjusted Vd, Geometric Mean (individual Bayesian estimates), Including Additional 11 Subjects, 6 y-<17 y (n = 29)): 1.68 L/kg
- Vd (clinical [2]; Weight-Adjusted Vd, Geometric Mean (individual Bayesian estimates), Including Additional 11 Subjects, 12 months-<24 months (n = 13)): 2.35 L/kg
- Vd (clinical [2]; Weight-Adjusted Vd, Geometric Mean (individual Bayesian estimates), Including Additional 11 Subjects, 28 weeks GA-<1 month (n = 28)): 5.74 L/kg
- Vd (clinical [3]; in vivo): 43 L
- AUC(0-t) (clinical [3]; in vivo, AUC0-t): 117 ng·h/mL
- AUC(0-inf) (clinical [3]; in vivo, AUC0-∞): 117 ng·h/mL
- Cmax (clinical [3]; in vivo, Cmax): 28.8 ng/mL
- clearance (clinical [3]; in vivo, weight-adjusted clearance): ~16.7 mL/min/kg
- clearance (clinical [3]; plasma, intravenous, 0.2 ug/kg, CL, Group I (≥2 to <6 y), Dose Level 1 (LD 0.25/CD 0.2 μg/kg/hr), geometric mean, full evaluable population): 271 mL/min
- clearance (clinical [3]; plasma, intravenous, 0.2 ug/kg, CL, Group II (≥6 to <17 y), Dose Level 1 (LD 0.25/CD 0.2 μg/kg/hr), geometric mean, full evaluable population): 412 mL/min
- Vd (clinical [3]; plasma, intravenous, 0.2 ug/kg, Vd, Group I (≥2 to <6 y), Dose Level 1 (LD 0.25/CD 0.2 μg/kg/hr), geometric mean, full evaluable population): 36.9 L
- Vd (clinical [3]; plasma, intravenous, 0.2 ug/kg, Vd, Group II (≥6 to <17 y), Dose Level 1 (LD 0.25/CD 0.2 μg/kg/hr), geometric mean, full evaluable population): 51.7 L
- clearance (clinical [3]; plasma, intravenous, 0.4 ug/kg, CL, Group I (≥2 to <6 y), Dose Level 2 (LD 0.50/CD 0.4 μg/kg/hr), geometric mean, full evaluable population): 212 mL/min
- clearance (clinical [3]; plasma, intravenous, 0.4 ug/kg, CL, Group II (≥6 to <17 y), Dose Level 2 (LD 0.50/CD 0.4 μg/kg/hr), geometric mean, full evaluable population): 413 mL/min
- Vd (clinical [3]; plasma, intravenous, 0.4 ug/kg, Vd, Group I (≥2 to <6 y), Dose Level 2 (LD 0.50/CD 0.4 μg/kg/hr), geometric mean, full evaluable population): 31.8 L
- Vd (clinical [3]; plasma, intravenous, 0.4 ug/kg, Vd, Group II (≥6 to <17 y), Dose Level 2 (LD 0.50/CD 0.4 μg/kg/hr), geometric mean, full evaluable population): 61.2 L
- clearance (clinical [3]; plasma, intravenous, 0.7 ug/kg, CL, Group I (≥2 to <6 y), Dose Level 3 (LD 1.00/CD 0.7 μg/kg/hr), geometric mean, full evaluable population): 276 mL/min
- clearance (clinical [3]; plasma, intravenous, 0.7 ug/kg, CL, Group II (≥6 to <17 y), Dose Level 3 (LD 1.00/CD 0.7 μg/kg/hr), geometric mean, full evaluable population): 274 mL/min
- Vd (clinical [3]; plasma, intravenous, 0.7 ug/kg, Vd, Group I (≥2 to <6 y), Dose Level 3 (LD 1.00/CD 0.7 μg/kg/hr), geometric mean, full evaluable population): 46.6 L
- Vd (clinical [3]; plasma, intravenous, 0.7 ug/kg, Vd, Group II (≥6 to <17 y), Dose Level 3 (LD 1.00/CD 0.7 μg/kg/hr), geometric mean, full evaluable population): 46.6 L
- clearance (clinical [3]; plasma, intravenous, 2 ug/kg, CL, Group I (≥2 to <6 y), Dose Level 4 (LD 1.00/CD 2.00 μg/kg/hr), geometric mean, full evaluable population): 199 mL/min
- clearance (clinical [3]; plasma, intravenous, 2 ug/kg, CL, Group II (≥6 to <17 y), Dose Level 4 (LD 1.00/CD 2.00 μg/kg/hr), geometric mean, full evaluable population): 423 mL/min
- Vd (clinical [3]; plasma, intravenous, 2 ug/kg, Vd, Group I (≥2 to <6 y), Dose Level 4 (LD 1.00/CD 2.00 μg/kg/hr), geometric mean, full evaluable population): 36.3 L
- Vd (clinical [3]; plasma, intravenous, 2 ug/kg, Vd, Group II (≥6 to <17 y), Dose Level 4 (LD 1.00/CD 2.00 μg/kg/hr), geometric mean, full evaluable population): 72.8 L
- AUC(0-t) (clinical [3]; plasma, intravenous, AUC0-t Mean, Dose Level 1, LD 0.25/CD 0.2 μg/kg/hr, full evaluable population): 2.68 ng·h/mL
- AUC(0-t) (clinical [3]; plasma, intravenous, AUC0-t Mean, Dose Level 2, LD 0.50/CD 0.4 μg/kg/hr, full evaluable population): 6.46 ng·h/mL
- AUC(0-t) (clinical [3]; plasma, intravenous, AUC0-t Mean, Dose Level 3, LD 1.00/CD 0.7 μg/kg/hr, full evaluable population): 17 ng·h/mL
- AUC(0-t) (clinical [3]; plasma, intravenous, AUC0-t Mean, Dose Level 4, LD 1.00/CD 2.00 μg/kg/hr, full evaluable population): 28.5 ng·h/mL
- AUC(0-t) (clinical [3]; plasma, intravenous, AUC0-t Median, Dose Level 1, LD 0.25/CD 0.2 μg/kg/hr, full evaluable population): 1.54 ng·h/mL
- AUC(0-t) (clinical [3]; plasma, intravenous, AUC0-t Median, Dose Level 2, LD 0.50/CD 0.4 μg/kg/hr, full evaluable population): 5.25 ng·h/mL
- AUC(0-t) (clinical [3]; plasma, intravenous, AUC0-t Median, Dose Level 3, LD 1.00/CD 0.7 μg/kg/hr, full evaluable population): 5.61 ng·h/mL
- AUC(0-t) (clinical [3]; plasma, intravenous, AUC0-t Median, Dose Level 4, LD 1.00/CD 2.00 μg/kg/hr, full evaluable population): 25.4 ng·h/mL
- AUC(0-t) (clinical [3]; plasma, intravenous, AUC0-t, Table 30 key summary (mean), Dose Level 1, LD 0.25/CD 0.2 μg/kg/hr, full evaluable population): 2.68 ng·h/mL
- AUC(0-t) (clinical [3]; plasma, intravenous, AUC0-t, Table 30 key summary (mean), Dose Level 2, LD 0.50/CD 0.4 μg/kg/hr, full evaluable population): 6.46 ng·h/mL
- AUC(0-t) (clinical [3]; plasma, intravenous, AUC0-t, Table 30 key summary (mean), Dose Level 3, LD 1.00/CD 0.7 μg/kg/hr, full evaluable population): 17 ng·h/mL
- AUC(0-t) (clinical [3]; plasma, intravenous, AUC0-t, Table 30 key summary (mean), Dose Level 4, LD 1.00/CD 2.00 μg/kg/hr, full evaluable population): 28.5 ng·h/mL
- AUC(0-inf) (clinical [3]; plasma, intravenous, AUC0-∞ Mean, Dose Level 1, LD 0.25/CD 0.2 μg/kg/hr, full evaluable population): 3.15 ng·h/mL
- AUC(0-inf) (clinical [3]; plasma, intravenous, AUC0-∞ Mean, Dose Level 2, LD 0.50/CD 0.4 μg/kg/hr, full evaluable population): 6.67 ng·h/mL
- AUC(0-inf) (clinical [3]; plasma, intravenous, AUC0-∞ Mean, Dose Level 3, LD 1.00/CD 0.7 μg/kg/hr, full evaluable population): 17.3 ng·h/mL
- AUC(0-inf) (clinical [3]; plasma, intravenous, AUC0-∞ Mean, Dose Level 4, LD 1.00/CD 2.00 μg/kg/hr, full evaluable population): 29 ng·h/mL
- AUC(0-inf) (clinical [3]; plasma, intravenous, AUC0-∞ Median, Dose Level 1, LD 0.25/CD 0.2 μg/kg/hr, full evaluable population): 1.58 ng·h/mL
- AUC(0-inf) (clinical [3]; plasma, intravenous, AUC0-∞ Median, Dose Level 2, LD 0.50/CD 0.4 μg/kg/hr, full evaluable population): 5.52 ng·h/mL
- AUC(0-inf) (clinical [3]; plasma, intravenous, AUC0-∞ Median, Dose Level 3, LD 1.00/CD 0.7 μg/kg/hr, full evaluable population): 6.08 ng·h/mL
- AUC(0-inf) (clinical [3]; plasma, intravenous, AUC0-∞ Median, Dose Level 4, LD 1.00/CD 2.00 μg/kg/hr, full evaluable population): 25.7 ng·h/mL
- AUC(0-inf) (clinical [3]; plasma, intravenous, AUC0-∞, Table 30 key summary (mean), Dose Level 1, LD 0.25/CD 0.2 μg/kg/hr, full evaluable population): 3.15 ng·h/mL
- AUC(0-inf) (clinical [3]; plasma, intravenous, AUC0-∞, Table 30 key summary (mean), Dose Level 2, LD 0.50/CD 0.4 μg/kg/hr, full evaluable population): 6.67 ng·h/mL
- AUC(0-inf) (clinical [3]; plasma, intravenous, AUC0-∞, Table 30 key summary (mean), Dose Level 3, LD 1.00/CD 0.7 μg/kg/hr, full evaluable population): 17.3 ng·h/mL
- AUC(0-inf) (clinical [3]; plasma, intravenous, AUC0-∞, Table 30 key summary (mean), Dose Level 4, LD 1.00/CD 2.00 μg/kg/hr, full evaluable population): 29 ng·h/mL
- clearance (clinical [3]; plasma, intravenous, CL Mean, Dose Level 1, LD 0.25/CD 0.2 μg/kg/hr, full evaluable population): 537 mL/min
- clearance (clinical [3]; plasma, intravenous, CL Mean, Dose Level 2, LD 0.50/CD 0.4 μg/kg/hr, full evaluable population): 338 mL/min
- clearance (clinical [3]; plasma, intravenous, CL Mean, Dose Level 3, LD 1.00/CD 0.7 μg/kg/hr, full evaluable population): 309 mL/min
- clearance (clinical [3]; plasma, intravenous, CL Mean, Dose Level 4, LD 1.00/CD 2.00 μg/kg/hr, full evaluable population): 370 mL/min
- clearance (clinical [3]; plasma, intravenous, CL Median, Dose Level 1, LD 0.25/CD 0.2 μg/kg/hr, full evaluable population): 326 mL/min
- clearance (clinical [3]; plasma, intravenous, CL Median, Dose Level 2, LD 0.50/CD 0.4 μg/kg/hr, full evaluable population): 267 mL/min
- clearance (clinical [3]; plasma, intravenous, CL Median, Dose Level 3, LD 1.00/CD 0.7 μg/kg/hr, full evaluable population): 270 mL/min
- clearance (clinical [3]; plasma, intravenous, CL Median, Dose Level 4, LD 1.00/CD 2.00 μg/kg/hr, full evaluable population): 282 mL/min
- clearance (clinical [3]; plasma, intravenous, CL, Table 30 key summary (mean), Dose Level 1, LD 0.25/CD 0.2 μg/kg/hr, full evaluable population): 537 mL/min
- clearance (clinical [3]; plasma, intravenous, CL, Table 30 key summary (mean), Dose Level 2, LD 0.50/CD 0.4 μg/kg/hr, full evaluable population): 338 mL/min
- clearance (clinical [3]; plasma, intravenous, CL, Table 30 key summary (mean), Dose Level 3, LD 1.00/CD 0.7 μg/kg/hr, full evaluable population): 310 mL/min
- clearance (clinical [3]; plasma, intravenous, CL, Table 30 key summary (mean), Dose Level 4, LD 1.00/CD 2.00 μg/kg/hr, full evaluable population): 370 mL/min
